Holding throughout (type): biochemical
One assay has as its target T1, Human PKK (Homo sapiens, UniProt P03952).
T1 construct: purchased Enzyme Research Laboratories
Briefly: Inhibition of PKK using an endpoint assay (human PKK). As to conditions: fluorogenic substrate H-Pro-Phe-Arg-AMC, 1 h room temperature, method names human or rat PKK, table does not say which. The essentials:
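Human PKK inhibition measured in 100 mM Tris, 150 mM NaCl, pH 7.8, 0.1% BSA, 0.05% Tween20, 1% DMSO. Endpoint format: reaction stopped with PPACK II at 1 μM final, fluorescence read at 355 nm excitation/460 nm emission.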

The target in a further assay is T2, human TK1 (Homo sapiens, UniProt P06870).
T2 construct: purchased R&D Systems
T2 sequence (P06870 25-262): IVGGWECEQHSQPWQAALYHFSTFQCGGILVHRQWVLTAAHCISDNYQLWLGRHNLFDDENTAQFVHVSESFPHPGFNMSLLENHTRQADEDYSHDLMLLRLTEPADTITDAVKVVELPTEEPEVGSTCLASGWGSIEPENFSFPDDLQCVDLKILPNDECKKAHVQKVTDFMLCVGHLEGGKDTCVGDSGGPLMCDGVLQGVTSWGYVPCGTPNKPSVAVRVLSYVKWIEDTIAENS
Briefly: Inhibition of TK1 (Ki). The settings on record: activated human TK1, substrate H-Pro-Phe-Arg-AMC, 24° C. The method, then: The ability of compounds of formula (I) to inhibit plasma kallikrein (PKK), Factor XIIa (FXIIa), Factor XIa (FXIa), Factor Xa (FXa), Factor IIa (alpha-thrombin; FIIa), plasmin, trypsin, tissue kallikrein 1 (TK1), Factor VIIa (FVIIa), or FVIIa complexed with Tissue Factor, phospholipids and CaCl2 (FVIIa/TF/PL/CaCl2) is determined using the following biochemical assays in assay buffer (100 mM Tris, 150 mM NaCL, adjusted to a pH of 7.8 with HCl, and containing 0.1% (w/v) BSA and 0.05% (v/v) Tween20) in the presence of 1% (v/v) DMSO:
Prior to the assay, human TK1 (R&D Systems) is activated by incubation with human trypsin (Calbiochem) in a 1:10,000 ratio for 15 min at 37° C. For assaying TK1 inhibitory activity, activated TK1 (31.25 nM or 1 U/mL) is incubated at 24° C. with 0.1 mM fluorogenic substrate H-Pro-Phe-Arg-AMC (11295 from Bachem) and various concentrations of the test compound in assay buffer. Measurements are performed in a kinetic interval every 2nd minute for 16 min using a Spectramax M5 (Molecular Devices) with the following settings of the wavelength excitation of 350 nm and wavelength emission of 450 nm.
The pIC50 values are then fitted using a four-parametric fitting procedure using GraphPad Prism (version 6; GraphPad Software, Inc.). Respective Ki values are obtained by correction of the IC50 values for the respective KM value of the used substrate (see Table A for the obtained KM values of the used substrates) using the following formula:
[formula] Where the IC50 is in molar and the KM value in mM.

Assay [1] addresses T3, PKK in kaolin activated human platelet poor plasma (Homo sapiens, UniProt P03952).
T3 construct: Platelet poor plasma (PPP) obtained from human wholeblood; from tissue
The assay can be described thus: Inhibition of PKK in kaolin activated human PPP.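 Also: readout is the rate of fluorogenic substrate cleavage in rfu per min.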 As to conditions: 25-750 μg/mL kaolin, global fit, text b200 calls the values IC90. The method, then: Platelet poor plasma (PPP) obtained from human wholeblood, anticoagulated with Na-Citrate, is incubated with various concentrations of the test compound together with either 25, 75, 250, or 750 μg/mL kaolin in assay buffer for 20 min at 37° C. such that for each kaolin dose used a concentration response is obtained for the test compound.

Each structure is given as a SMILES string. Bounds are passed on as bounds.

T3 sequence (P03952 391-638 limits assumed): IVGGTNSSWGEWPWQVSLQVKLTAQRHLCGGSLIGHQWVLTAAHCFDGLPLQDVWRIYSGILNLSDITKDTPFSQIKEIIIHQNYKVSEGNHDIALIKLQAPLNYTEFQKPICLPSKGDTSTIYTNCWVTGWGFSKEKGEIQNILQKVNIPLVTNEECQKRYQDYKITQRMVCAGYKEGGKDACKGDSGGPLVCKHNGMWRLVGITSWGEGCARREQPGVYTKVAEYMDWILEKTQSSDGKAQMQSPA
T3 sequence (P03952 20-390 limits assumed): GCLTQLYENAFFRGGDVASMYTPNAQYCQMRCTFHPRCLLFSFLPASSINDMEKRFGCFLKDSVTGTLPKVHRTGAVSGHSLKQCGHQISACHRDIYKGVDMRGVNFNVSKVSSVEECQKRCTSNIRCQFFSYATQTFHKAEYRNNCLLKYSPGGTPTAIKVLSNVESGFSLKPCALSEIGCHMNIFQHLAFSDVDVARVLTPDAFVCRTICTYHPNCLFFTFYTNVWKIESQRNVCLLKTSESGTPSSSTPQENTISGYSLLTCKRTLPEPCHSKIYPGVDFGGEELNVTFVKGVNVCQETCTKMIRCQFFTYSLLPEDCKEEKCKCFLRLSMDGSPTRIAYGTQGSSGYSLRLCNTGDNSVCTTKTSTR
T1 sequence (P03952 20-390 limits assumed): as above
T1 sequence (P03952 391-638 limits assumed): as the sequence (P03952 391-638 limits assumed) above

Turning to `Cc1nc(N2CC3CC3C2)ccc1Cn1cc(C(=O)N[C@@H]2CCc3c2ncn3C)c(C(F)(F)F)n1` (stereo partly drawn) [Example 119, 1-[(6-{3-Azabicyclo[3.1.0]hexan-3-yl}-2-methylpyridin-3-yl)methyl]-N-[(4R)-1-methyl-1H,4H,5H,6H-cyclopenta[d]imidazol-4-yl]-3-(trifluoromethyl)-1H-pyrazole-4-carboxamide], the results for the IC50 (on Human PKK; in assay [1]) were 1.2 nM and 1460 nM, respectively. Also, on human TK1, the Ki was found to be 1060 nM.
For `Cn1cnc2c1CC[C@H]2NC(=O)c1cn(Cc2cnc(N3CC4CC4C3)cc2Cl)cn1` (stereo partly drawn) [Example 120, 1-[(6-{3-Azabicyclo[3.1.0]hexan-3-yl}-4-chloropyridin-3-yl)methyl]-N-[(4R)-1-methyl-1H,4H,5H,6H-cyclopenta[d]imidazol-4-yl]-1H-imidazole-4-carboxamide], the IC50 on Human PKK was 2.4 nM; in assay [1], 934 nM. The Ki at human TK1 is > 10000 nM.
For `Cn1cnc2c1CC[C@H]2NC(=O)c1cn(Cc2cnc(N3CC4CC4C3)cc2C(F)(F)F)cn1` (stereo partly drawn) [Example 121, 1-[(6-{3-Azabicyclo[3.1.0]hexan-3-yl}-4-(trifluoromethyl)pyridin-3-yl)methyl]-N-[(4R)-1-methyl-1H,4H,5H,6H-cyclopenta[d]imidazol-4-yl]-1H-imidazole-4-carboxamide], in that order: 1.6 nM, 514 nM and > 10000 nM.
Take `Cn1cnc2c1CC[C@H]2NC(=O)c1cn(Cc2ccc(N3CC4CC4C3)nc2Cl)cn1` (stereo partly drawn) [Example 122, 1-[(6-{3-Azabicyclo[3.1.0]hexan-3-yl}-2-chloropyridin-3-yl)methyl]-N-[(4R)-1-methyl-1H,4H,5H,6H-cyclopenta[d]imidazol-4-yl]-1H-imidazole-4-carboxamide]: the IC50 on Human PKK was determined as 1.5 nM; in assay [1], 492 nM. In addition, the Ki on human TK1 was > 10000 nM.
In the case of `COCc1nn(Cc2ccc(N3CC4CC4C3)nc2C)cc1C(=O)N[C@@H]1CCc2c1ncn2C` (stereo partly drawn) [Example 123, 1-[(6-{3-Azabicyclo[3.1.0]hexan-3-yl}-2-methylpyridin-3-yl)methyl]-3-(methoxymethyl)-N-[(4R)-1-methyl-1H,4H,5H,6H-cyclopenta-[d]imidazol-4-yl]-1H-pyrazole-4-carboxamide], the IC50 against Human PKK came out at 0.9 nM; in assay [1], 1320 nM. Further, the Ki at human TK1 is > 10000 nM.
The matching figures for `Cc1nc(N2CC3CC3C2)c(C#N)cc1Cn1cnc(C(=O)N[C@@H]2CCc3c2ncn3C)c1` (stereo partly drawn) [Example 124, 1-[(6-{3-Azabicyclo[3.1.0]hexan-3-yl}-5-cyano-2-methylpyridin-3-yl)methyl]-N-[(4R)-1-methyl-1H,4H,5H,6H-cyclopenta[d]imidazol-4-yl]-1H-imidazole-4-carboxamide]: 2.4 nM, 823 nM and > 10000 nM.
Regarding `Cc1nc(N2CC3CC3C2)ccc1Cn1cc(C(=O)N[C@@H]2CCc3c2ncn3C)c(C(C)(C)O)n1` (stereo partly drawn) [Example 125, 1-[(6-{3-Azabicyclo[3.1.0]hexan-3-yl}-2-methylpyridin-3-yl)methyl]-3-(2-hydroxypropan-2-yl)-N-[(4R)-1-methyl-1H,4H,5H,6H-cyclopenta-[d]imidazol-4-yl]-1H-pyrazole-4-carboxamide], the IC50 against Human PKK amounted to 1.1 nM; in assay [1], 2740 nM. The Ki on human TK1 was > 10000 nM.
The matching figures for `COCc1nn(Cc2ccc(N3CC4C(C3)C4(F)F)nc2C)cc1C(=O)N[C@@H]1CCc2c1ncn2C` (stereo partly drawn) [Example 126, 1-[(6-{6,6-Difluoro-3-azabicyclo[3.1.0]hexan-3-yl}-2-methylpyridin-3-yl)methyl]-3-(methoxymethyl)-N-[(4R)-1-methyl-1H,4H,5H,6H-cyclopenta[d]imidazol-4-yl]-1H-pyrazole-4-carboxamide]: 0.6 nM, 681 nM and > 10000 nM.
The matching figures for `Cn1cnc2c1CC[C@H]2NC(=O)c1cnn(Cc2ccc(N3CC4CC4C3)nc2Cl)c1` (stereo partly drawn) [Example 127, 1-[(6-{3-Azabicyclo[3.1.0]hexan-3-yl}-2-chloropyridin-3-yl)methyl]-N-[(4R)-1-methyl-1H,4H,5H,6H-cyclopenta[d]imidazol-4-yl]-1H-pyrazole-4-carboxamide]: 1.2 nM, 1680 nM and > 10000 nM.
As for `Cc1nc(N2CC3CC3C2)c(C#N)cc1Cn1cc(C(=O)N[C@@H]2CCc3c2ncn3C)cn1` (stereo partly drawn) [Example 128, 1-[(6-{3-Azabicyclo[3.1.0]hexan-3-yl}-5-cyano-2-methylpyridin-3-yl)methyl]-N-[(4R)-1-methyl-1H,4H,5H,6H-cyclopenta[d]imidazol-4-yl]-1H-pyrazole-4-carboxamide], the IC50 against Human PKK worked out at 5.1 nM; in assay [1] it was 1390 nM. Also, the Ki at human TK1 is > 10000 nM.
For `Cn1cnc2c1CC[C@H]2NC(=O)c1cnn(Cc2ccc(N3CC4CC4C3)nc2)c1` (stereo partly drawn) [Example 131, 1-[(6-{3-Azabicyclo[3.1.0]hexan-3-yl}pyridin-3-yl)methyl]-N-[(4R)-1-methyl-1H,4H,5H,6H-cyclopenta[d]imidazol-4-yl]-1H-pyrazole-4-carboxamide], in that order: 4.3 nM, 962 nM and > 10000 nM.
On to `Cc1nc(N2CC3CC3C2)ccc1Cn1cc(C(=O)N[C@@H]2CCc3c2ncn3C)cn1` (stereo partly drawn) [Example 133, 1-[(6-{3-Azabicyclo[3.1.0]hexan-3-yl}-2-methylpyridin-3-yl)methyl]-N-[(4R)-1-methyl-1H,4H,5H,6H-cyclopenta[d]imidazol-4-yl]-1H-pyrazole-4-carboxamide], for which the half-inhibitory concentration (IC50) was 1.6 nM against Human PKK and 560 nM in assay [1]. The Ki at human TK1 was > 10000 nM.
For `Cn1cnc2c1CC[C@H]2NC(=O)c1cnn(Cc2ccc(N3CC4CC4C3)nc2C(F)(F)F)c1` (stereo partly drawn) [Example 134, 1-[(6-{3-Azabicyclo[3.1.0]hexan-3-yl}-2-(trifluoromethyl)pyridin-3-yl)methyl]-N-[(4R)-1-methyl-1H,4H,5H,6H-cyclopenta[d]imidazol-4-yl]-1H-pyrazole-4-carboxamide], the IC50 came to 1.7 nM on Human PKK and 1030 nM in assay [1]. The inhibition constant (Ki) on human TK1 is > 10000 nM.
Take `Cn1cnc2c1CC[C@H]2NC(=O)c1cn(Cc2ccc(N3CC4CC4C3)nc2)nn1` (stereo partly drawn) [Example 135, 1-[(6-{3-Azabicyclo[3.1.0]hexan-3-yl}pyridin-3-yl)methyl]-N-[(4R)-1-methyl-1H,4H,5H,6H-cyclopenta[d]imidazol-4-yl]-1H-1,2,3-triazole-4-carboxamide]: the figures for the concentration for half-maximal inhibition (IC50) (against Human PKK; in assay [1]) were 4.2 nM and 909 nM, respectively. At human TK1, the Ki is > 10000 nM.
Regarding `Cc1nc(N2CC3C(C2)C3(F)F)ncc1Cn1cnc(C(=O)N[C@@H]2CCc3c2ncn3C)c1` (stereo partly drawn) [Example 136, 1-[(2-{6,6-Difluoro-3-azabicyclo[3.1.0]hexan-3-yl}-4-methylpyrimidin-5-yl)methyl]-N-[(4R)-1-methyl-1H,4H,5H,6H-cyclopenta[d]imidazol-4-yl]-1H-imidazole-4-carboxamide], the IC50 on Human PKK turned out to be 2 nM; in assay [1] it was 310 nM. Moreover, the Ki on human TK1 is > 10000 nM.
In the case of `Cc1nc(N2CC3CC3C2)ncc1Cn1cc(C(=O)N[C@@H]2CCc3c2ncn3C)nn1` (stereo partly drawn) [Example 137, 1-[(2-{3-Azabicyclo[3.1.0]hexan-3-yl}-4-methylpyrimidin-5-yl)methyl]-N-[(4R)-1-methyl-1H,4H,5H,6H-cyclopenta[d]imidazol-4-yl]-1H-1,2,3-triazole-4-carboxamide], the values for the half-inhibitory concentration (IC50) (against Human PKK; in assay [1]) were 4.4 nM and 756 nM, respectively. In addition, the inhibition constant Ki on human TK1 is > 10000 nM.
For `Cc1nc(N2CC3(CC3)C2)ccc1Cn1cc(C(=O)N[C@@H]2CCc3c2ncn3C)cn1` [Example 169, 1-[(6-{5-Azaspiro[2.3]hexan-5-yl}-2-methylpyridin-3-yl)methyl]-N-[(4R)-1-methyl-1H,4H,5H,6H-cyclopenta[d]imidazol-4-yl]-1H-pyrazole-4-carboxamide], in that order: 0.6 nM, 485 nM and > 10000 nM.
As for `Cc1nc(N2CC3(CC3)C2)ccc1Cn1cnc(C(=O)N[C@@H]2CCc3c2ncn3C)c1` [Example 170, 1-[(6-{5-Azaspiro[2.3]hexan-5-yl}-2-methylpyridin-3-yl)methyl]-N-[(4R)-1-methyl-1H,4H,5H,6H-cyclopenta[d]imidazol-4-yl]-1H-imidazole-4-carboxamide], the IC50 at Human PKK came out at 0.8 nM; in assay [1], 469 nM. The inhibition constant Ki at human TK1 was > 10000 nM.

Usually IC50 stands for the point on the concentration scale where inhibition reaches its midpoint. What is called Ki is a dissociation constant, usually derived from enzyme kinetics or from competition with a known ligand. High values mean a looser hold on the target, low ones a stronger hold on the target.
